Measurements from US4014909A, “Esters of 21-thiol steroids” (priority 1974, dated 1977).

What was measured:
Type in all cases: in vivo, rat (Wistar, male)
[1] = Action on the hydro-mineral metabolism: sodium excretion, 96 hours treatment; settings: for Sodium excreted, average ± standard error: 96 hours treatment, 5 h urine
Text: The action on the hydro-mineral metabolism was examined by means of a test, the principle of which is as follows:
The gluco-corticoids are not all free from mineral-corticoid effects (for example hydro-cortisone). These latter are indicated by:
A reduced renal elimination of sodium (sodium retention);
a loss of potassium (potassium leakage), these two effects reproducing the action of aldosteron.
This study has been carried out on male Wistar rats having weights between 180 and 190 grams.
The animals were distributed at random in groups of ten.
The products under study were administered by the oral route in suspension in 5 % gum arabic. The animals of the reference group received the same volume of vehicle under the same conditions.
The treatments were carried out daily for 4 days.
The renal functional exploratory test was effected […] after the first administration of the product tested.
Eighteen hours before the test, the animals were completely deprived of food and water, this being subsequently maintained up to the end of the test.
Immediately before the renal functional test, the animals received an overdose by the oral route of physiological solution equal to 5 % by volume of their body weight.
The urine passed during five hours was collected for each animal in a polyethylene tube.
The concentration of sodium was determined in each sample by flame photometry; the total quantitt excreted was then calculated as a function of the corresponding volume of urine. The values obtained for each group were then compared following the Fisher Student method with the quantity of sodium excreted by the animals of the reference group.
The results obtained with hydro-cortisone acetate and the JO 1016 in the case of a treatment lasting 96 hours following the procedure (f) are indicated in the following Table XVI.

[2] = test system: hepatic tissue; experiment: Action on the glucidic metabolism: hepatic glycogen after 96 hours treatment; settings: 18 h water diet
Text: The action on the glucidic metabolism was investigated by means of a test, the principle of which is as follows:
Gluco-corticoid reduce the peripheral needs of the organism in glucose, they also increase the synthesis by the liver of glycogen (neo-glycogenesis). Their action on the glucidic metabolism is thus indicated:
(1) By an increase of glycemia;
(2) by a glycogenic overload on the liver and especially by the persistence of the hepatic shock of glycogen in the food-deprived animal, and treated with a glyco-corticoid by comparison with the non-treated animal.
For this study, Wistar male rats were used; the initial weight of which was between 150 and 160 grams, distributed at random in groups of 10.
The products studied were administered by the oral route in suspension in 5 % gum arabic, under a volume of 0.5 ml. per 100 grams, the animals of the reference group receiving the same volume of vehicles under the same condition.
The treatments were carried out daily for four days, a fifth administration being given seven hours before killing the animals, which took place 96 hours after the first administration.
Immediately after killing the animals, a sample of the hepatic tissue was taken from the central lobe and weighed. Immediately afterwards, it was subjected to digestion in 30 % potassium hydroxide in a boiling water-bath for 20 minutes. The glycogen contained in the digestate was then dosed, following the technique described by R. O. Stafford, L. E. Barnes and Coll. (Proc. Soc. Exp. Med. 39/3, 371-374, 1955).
The content of glycogen in the liver samples has been expressed in grams of glycogen per 100 grams of hepatic tissue.
Table XIII which follows indicates the content of glycogen in the liver with the reference animals and the treated animals for 96 hours after a water diet of 18 hours (see procedure (e)).

[3] = test system: granuloma; experiment: Anti-proliferative (anti-granulomatous) activity, cotton pellet granuloma; settings: rat, cotton pellet impregnated with product, 6 days
Text: The experimental local anti-inflammatory activity of the compounds presented was estimated in rats by their anti-proliferative (anti-granulomatous) action, and for certain of these, by their anti-arthritic activity and their antiexudative activity.
The anti-proliferative (anti-granulomatous) activity has been brought into evidence by means of a test, the principle of which is as follows.
The introduction of a foreign body into an organism produces a set of inflammatory reactions which results, in the chromic stage, in the formation of a defence granuloma around the foreign body. The proliferation of this granuloma is eliminated or attenuated by anti-inflammatory agents.
The technique employed is very similar to that described by Winter and Porter (J. Am. Pharm. Ass. 46/9. 515) 1957 with rats.
Homogeneous groups of 6 male adult rats of the Wistar Strain were used, distributed at random and having weights comprised between 180 and 200 grams.
The implants or pellets were prepared from rolls of dental cotton; the weight of the pellets was between 35 and 40 mg.
The products to be tested were dissolved in dimethylsulphoxide (DMSO) and the solutions obtained, deposited on the pellets at a volume of 0.2 ml per pellet. The DMSO was then evaporated under high vacuum at ambient temperature, the complete elimination of the solvent being checked by weighing the pellets. "Reference" pellets, soaked with the solvent alone, were treated in the same manner.
Immediately before their introduction, the pellets were soaked with an antibiotic solution (0.1 ml. of a solution of penicillin G and streptomycin containing 200,000 of penicillin G and 0.1 gram of streptomycin sulphate per cc.).
Each animal received two pellets in the sub-cutaneous dorsal tissue on each side of the spinal column, at the costo-lumbar angle, under light anaesthesia with ether. The day of the operation and for three days after, the animals received by sub-cutaneous injection, 0.1 ml. of the antibiotic solution in the caudal region.
Six days after the introduction, the animals were killed by inhalation of chloroform and the granulomae were extracted and weighed, (fresh weight), and then the initial weights of the cotton pellets were subtracted from the total weight.
Certain non-sulphured steroids causing a large increase in protein catabolism which can influence the formation of the granuloma independently of their anti-inflammatory action, the weights of the granulomae were expressed as a percentage of the body weight (technique proposed by G. Dipasquale and A. Meli: J. Pharm. Pharmacol. (1965), 17,367-382) and the anti-proliferative effect of the various compounds as a percentage inhibition with respect to the reference granulomae. The DE50 were calculated by transferring the results on to semi-logarithmic paper.

With `CC(=O)OCC(=O)[C@@]1(O)CC[C@H]2[C@@H]3CCC4=CC(=O)CC[C@]4(C)[C@H]3[C@@H](O)C[C@@]21C` [Hydrocortisone (acetate), Hydrocortisone acetate, reference compound] the “Sodium excreted, average ± standard error” value ([1]; 16 mg/kg oral) was 0,371 ± 0,0827 Meq, the “Glycogen in hepatic tissue” value ([2]; 2 mg/kg oral) was 0.19 g/100 g and the “Glycogen in hepatic tissue” value ([2]; 5 mg/kg oral) was 0.45 g/100 g. The “Glycogen in hepatic tissue” value ([2]; 10 mg/kg oral) was 0.46 g/100 g, the “Glycogen in hepatic tissue” value ([2]; 20 mg/kg oral) was 1.26 g/100 g and the “Glycogen in hepatic tissue” value ([2]; 50 mg/kg oral) was 2.49 g/100 g. For the same compound, the ED50 anti-proliferative activity [3] was 1.05 mg/pellet.
For `CC(C)(C)C(=O)SCC(=O)[C@@]1(O)CC[C@H]2[C@@H]3CCC4=CC(=O)CC[C@]4(C)[C@H]3[C@@H](O)C[C@@]21C` [JO 1016, Dihydroxy-11β, 17α thio-21 dioxo-3,20 pregnene-4-21 pivalate], the “Sodium excreted, average ± standard error” value ([1]; 16 mg/kg oral) was 0.820 ± 0.1040 Meq, the “Sodium excreted, percentage of variation” value ([1]; 16 mg/kg oral, 96 hours, hydrocortisone acetate 0,001 < p < 0,01, JO 1016 N.S.) was 0,4% and the “Sodium excreted, average ± standard error” value ([1]; 32 mg/kg oral) was 0.754 ± 0.0465 Meq. For the same compound, the “Sodium excreted, average ± standard error” value ([1]; 80 mg/kg oral) was 0.684 ± 0.1591 Meq, the “Sodium excreted, average ± standard error” value ([1]; 160 mg/kg oral) was 0.664 ± 0.0484 Meq and the “Glycogen in hepatic tissue” value ([2]; 25 mg/kg oral) was 0.25 g/100 g. For the same compound, the “Glycogen in hepatic tissue” value ([2]; 50 mg/kg oral) was 0.39 g/100 g, the “Glycogen in hepatic tissue” value ([2]; 100 mg/kg oral) was 0.42 g/100 g and the ED50 anti-proliferative activity [3] was 0.35 mg/pellet.
